Test system: Streptococcus aureus
Assay: Sterilization effect of hydrogen peroxide photolysis (laser 400±20 nm) with catalase activity inhibitor, viable count on BHI agar
Assay type: cell-based
Conditions: only hydrogen peroxide, no laser, no scutellaria, H(+)L(−)O(−); FIG. 4
Procedure: An experiment for examining an effect of the catalase activity inhibitor of enhancing a sterilization effect was conducted. In the experiment, […] which is a catalase-positive bacterium was used as a target of the sterilization. A bacterium suspension having a concentration of 10^7 cells/mL was prepared by using the bacterium and saline, and the suspension was used for the experiment. A semiconductor laser (product name: […] Experiment samples were prepared by using scutellaria as the catalase activity inhibitor, diluting the scutellaria with ultrapure water, followed by sterilization by filtration through a 0.22 μm filter, and then adding the scutellaria solution to the mixture liquids of bacterium suspension and hydrogen peroxide to attain final scutellaria concentrations of 0, 1, and 3 mg/mL. [table] The laser irradiation was performed immediately after preparing the experiment samples, and 50 μL of the sample after the irradiation and 50 μL of 5000 U/mL catalase were mixed to stop the reaction of hydrogen peroxide. After that, a 10-fold dilution series was prepared and was seeded on a BHI agar culture medium, followed by culturing under an aerophilic condition of 37° C. for 24 hours, and then evaluation of the sterilization effect was conducted. […]

## OO [hydrogen peroxide]
  sterilization effect: no sterilization effect
